Measured values: PMC4147338, “Host defense peptides for treatment of colorectal carcinoma – a comparative in vitro and in vivo analysis” (Oncotarget, 2014)

Assays:
[1] = FRET spectroscopy probe dilution assay, membrane intercalation; format: binding; details: NBD-PE/rhodamine-PE, peptide 0.2-0.8 μM, 20 mM HEPES 150 mM NaCl pH 7.4, 37°C
Experimental: FRET spectroscopy served as a sensitive tool to detect lipid dependence of the membrane interaction of antimicrobial peptides. For this, all peptides were added to liposomes consisting of zwitterionic PC alone, of a mixture of PC and of negatively charged PS, as well as of pure PS (Figure 1). All lipid vesicles were doped with donor and acceptor dyes, peptides were added, and the emission intensities of both dyes were monitored over time. An increase of the fluorescence intensity of the donor (IDonor) and a simultaneous decrease of the fluorescence intensity of the acceptor dye (IAcceptor), i.e. a reduced FRET efficacy, indicated an increase in the overall mean distance between labeled phospholipids, and corresponded to an insertion of peptides into the lipid bilayer. For clarity, the IDonor/IAcceptor ratio is shown (Figure 1).
Figure 1 FRET spectroscopy. (A-C) Binding to and insertion of peptide C7A-D21K into phospholipid membranes (A) C7A-D21K was added at time point 50 s to liposomes (10 μM) consisting of pure PC, (B) a 90:10 molar mixture of PC:PS, and (C) of pure PS, each doubly doped with the fluorescently labeled FRET pair NBD-PE (donor) and rhodamine-PE (acceptor). Intercalation was monitored by measuring donor and acceptor fluorescence emission intensities. For better visualization only the quotient (IDonor/IAcceptor) is shown. Addition of the peptide solvent alone had no effect (dotted grey line). Peptide concentrations used: 0.2 μM (dotted black line, only in C), 0.4 μM (solid grey line, only in C), and 0.8 μM (solid black line). (D-F) Binding to and insertion of peptides at different concentrations into phospholipid membranes. (A) Peptides were added to liposomes consisting of pure PC, (B) a 90:10 molar mixture of PC:PS, and (C) of pure PS, each doubly doped with the fluorescently labeled phospholipid FRET pair NBD-PE (donor) and rhodamine-PE (acceptor). Intercalation was monitored by measuring donor and acceptor fluorescence intensities. The relative increase of the IDonor/IAcceptor ratio 250 s after peptide addition is shown (Increase of IDonor/IAcceptor (%) = (IDonor/IAcceptor (peptide) - IDonor/IAcceptor (control))*100). Peptide concentrations used: 0.2 μM (open bars), 0.4 μM (grey bars), and 0.8 μM (black bars).
Intercalation of peptides into liposome membranes was determined by FRET spectroscopy applied as a probe dilution assay. Liposomes were prepared by dissolving appropriate lipid mixtures (pure PC, a 90:10 molar mixture of PC:PS, as well as pure PS, each doped with 1% of the donor dye NBD-PE and 1% of the acceptor dye rhodamine-PE) in chloroform and drying them under a gentle stream of nitrogen. The resulting lipid film was dispersed in 20 mM HEPES, 150 mM NaCl, pH 7.4, sonicated for 30 min and subjected to 3-4 temperature cycles from 4 to 60°C with an incubation period of 30 min at each step. Lipid dispersions were stored at 4°C overnight before use. For the assay, donor fluorescence (NBD) was excited at 470 nm, and donor (NBD, ID at 531 nm) as well as acceptor (rhodamine, IA at 593 nm) emission intensities were monitored over time. An increase of the ratio of the donor fluorescence intensity to that of the acceptor fluorescence intensity (IDonor/I^Acceptor) was interpreted as a membrane intercalation event. This ratio depends on the Förster efficiency, therefore a rising value means that the mean distance separation of donor and acceptor dyes is raising. The assay was performed at 37°C.

HROC24 xenografts = experiment: HROC24 xenograft, repetitive local peptide injection; format: in vivo, NMRI Foxn1nu mice; details: for Tumor growth inhibition in words / Tumor size, x-fold increase vs. day 0 (Vt/V0) / Tumors macroscopically breaking up / ulceration: 1 mg/kg bw local injection every third day, 9 injections, n=5; for Tumor size, x-fold increase vs. day 0 (Vt/V0): PBS control: 10.3-fold; for Tumor cell apoptosis, M30 CytoDeath staining (cytokeratin 18 cleavage): immunofluorescence of cryopreserved tumor sections
Experimental: Figure 7 In vivo growth kinetics and tumor cell apoptosis of HROC24 tumors in NMRI Foxn1mice with or without local treatment (A) Therapy was performed by repetitive local application of HDPs C7A or C7A-D21K (1 mg/kg bw) every third day (a total of 9 injections) (n=5 per group). Tumor-carrying control animals received either equivalent volumes of peptide NK11 or saline (n=5 per group). Tumor volumes are given as x-fold increase vs. day 0 (Vt/V0) (start of treatment) ± SD. *p<0.05 vs. PBS. (B) Representative immunofluorescence staining of apoptotic cells within HROC24 tumors. Cryopreserved tumor sections were stained with anti-M30 CytoDeath antibody, followed by anti-mouse IgG FITC antibody and nuclear DAPI as described in material and methods.
Experiments were performed on female 8–10-week old NMRI Foxn1^nu mice (Charles River, Sulzfeld, Germany) weighting 18-20 g. All animals were fed standard laboratory chow and given free access to water. Trials were performed in accordance with the German legislation on protection of animals and the Guide for the Care and Use of Laboratory Animals (Institute of Laboratory Animal Resources, National Research Council; NIH Guide, vol.25, no.28, 1996). NMRI Foxn1^nu mice were challenged with 5 × 10^6 HROC24 cells. Mice with established subcutaneous (s.c.) tumors received repetitive local injections of peptide C7A or C7A-D21K (1mg/kg bw, dissolved in 50 μl) every third day (a total of 9 injections) (n=5 per group). As control, tumor-carrying mice either received NK11 (1mg/kg bw, dissolved in 50 μl) or saline (50μl volume, n=5 per group). Tumor growth was controlled three times a week at time point of HDP injection and tumor volume was estimated according to the formula: V= width² * length * 0.52.
Tumor carrying mice were sacrificed at day 28 or when they became moribund before the tumor volume reached 2.000 mm³. At the end of each experiment, tumors, blood and spleens were collected from the animals of all groups for further analysis.
To study apoptotic cell death in vivo, 4 μm sections of HDP-treated and control tumors were mounted on poly-L-lysine-coated-slides. Following fixation in ice-cold methanol and blocking with 2% BSA (1h), cells were incubated with mouse anti-M30 CytoDeath antibody according to the manufacturer's instructions (Roche, Mannheim, Germany). A FITC-labeled anti-mouse IgG antibody was used as secondary antibody (Dako Envision Link, Hamburg, Germany). Cell nuclei were stained with DAPI and slides were embedded in mounting medium (Dako). Apoptotic cells were detected using a fluorescence microscope (Olympus, Münster, Germany).

| Sequence | Membrane intercalation (increase of IDonor/IAcceptor) ([1]; PC:PS 90:10 liposomes 10 μM) | Membrane intercalation (increase of IDonor/IAcceptor) ([1]; pure PC liposomes 10 μM) | Membrane intercalation (increase of IDonor/IAcceptor) ([1]; pure PS liposomes 10 μM) | Tumor growth inhibition in words (HROC24 xenografts) | Tumor size, x-fold increase vs. day 0 (Vt/V0) (HROC24 xenografts) [fold] | Tumor cell apoptosis, M30 CytoDeath staining (cytokeratin 18 cleavage) (HROC24 xenografts) | Tumors macroscopically breaking up / ulceration (HROC24 xenografts) |
| --- | --- | --- | --- | --- | --- | --- | --- |
| KISKRILTGKK [NK11, non-toxic control peptide based on NK-2, reference compound] | negligible | negligible | visible | induced tumor growth retardation as well | 4 | elevated cytokeratin 18 cleavage |  |
| KILRGVAKKIMRTFLRRISKDILTGKK [Peptide C7A, NK-2 derivative, Cys7 replaced with Ala] | slightly impaired |  | pronounced | most effectiveness |  | most strongly induced | 4/5 |
| KILRGVAKKIMRTFLRRISKKILTGKK [Peptide C7A-D21K, C7A with Asp21 substituted by Lys] | slightly impaired |  | pronounced | strong growth retardation | 3.4 | most strongly induced | no ulceration was observed |
